Assay results: the supplement of paper PMC10307832

Key:
Experiment in all cases: relative viability (nuclei count vs DMSO), 5 days (fraction); higher = more cells survive
[1] = compound: C1CC1C(=O)NC2=NNC3=C2C=CC(=C3)C4=CC(=CC=C4)C(=O)NC5CC5 [XMD13-2] + CC(C)C[C@H](NC(=O)[C@H](Cc1ccccc1)NC(=O)c1cnccn1)B(O)O [Bortezomib] (partner 0.002 µM)
How it was run: (§1)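 Relative viability equals treated-well nuclei counts divided by vehicle-well nuclei counts. Counts came from 4× images of lung cancer cell lines grown in 1536-well plates for 5 days after pin-tool dosing on the day after seeding. Dosing used one drug alone or a fixed anchor-drug dose plus five library-drug doses (not always all listed) in √10 steps, and values are medians of duplicate plates.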

[2] = compound: Cc1ccc(C(=O)Nc2cccc(C(F)(F)F)c2)cc1Nc1cncc(C(N)=O)c1 [ALW-II-49-7] + CC(=O)c1c(C)c2cnc(Nc3ccc(N4CCNCC4)cn3)nc2n(C2CCCC2)c1=O [Palbociclib] (partner 0.5 µM)
How it was run: as §1

[3] = compound: C1CC1C(=O)NC2=NNC3=C2C=CC(=C3)C4=CC(=CC=C4)C(=O)NC5CC5 [XMD13-2] + NC(=O)Nc1cc(-c2cccc(F)c2)sc1C(=O)N[C@H]1CCCNC1 [AZD7762] (partner 0.2 µM)
How it was run: as §1

[4] = compound: Cc1ccc(C(=O)Nc2cccc(C(F)(F)F)c2)cc1Nc1cncc(C(N)=O)c1 [ALW-II-49-7] + Cc1nc(Nc2ncc(C(=O)Nc3c(C)cccc3Cl)s2)cc(N2CCN(CCO)CC2)n1 [Dasatinib] (partner 0.075 µM)
How it was run: as §1

| Cell Line | relative viability ([1]; first compound 0.05 µM) | relative viability ([1]; first compound 0.1581 µM) | relative viability ([1]; first compound 0.5 µM) | relative viability ([1]; first compound 1.581 µM) | relative viability ([1]; first compound 5 µM) | relative viability ([2]; first compound 0.08 µM) | relative viability ([2]; first compound 0.253 µM) | relative viability ([2]; first compound 0.8 µM) | relative viability ([2]; first compound 2.53 µM) | relative viability ([2]; first compound 8 µM) | relative viability ([3]; first compound 0.05 µM) | relative viability ([3]; first compound 0.1581 µM) | relative viability ([3]; first compound 0.5 µM) | relative viability ([3]; first compound 1.581 µM) | relative viability ([3]; first compound 5 µM) | relative viability ([4]; first compound 0.08 µM) | relative viability ([4]; first compound 0.253 µM) | relative viability ([4]; first compound 0.8 µM) | relative viability ([4]; first compound 2.53 µM) | relative viability ([4]; first compound 8 µM) |
| --- | --- | --- | --- | --- | --- | --- | --- | --- | --- | --- | --- | --- | --- | --- | --- | --- | --- | --- | --- | --- |
| 201T | 1.12 | 1.12 | 1.16 | 1.15 | 1.18 | 0.362 | 0.361 | 0.376 | 0.329 | 0.347 | 0.634 | 0.707 | 0.584 | 0.616 | 0.61 | 0.616 | 0.664 | 0.545 | 0.594 | 0.479 |
| A-427 | 0.993 | 1.06 | 0.993 | 0.858 | 0.857 | 0.491 | 0.523 | 0.556 | 0.561 | 0.51 | 0.899 | 0.74 | 0.811 | – | 0.588 | 0.686 | 0.824 | 0.733 | 0.741 | 0.627 |
| ABC-1 | 0.331 | 0.319 | 0.261 | 0.289 | 0.296 | 0.48 | 0.647 | 0.59 | 0.665 | 0.711 | – | 0.897 | 0.531 | – | 0.745 | 0.501 | 0.627 | 0.506 | 0.656 | 0.483 |
| BEN | 1.2 | 0.83 | 0.847 | 0.712 | 0.801 | 0.468 | 0.452 | 0.482 | 0.439 | 0.481 | 0.799 | 0.777 | 0.638 | 0.594 | 0.729 | 0.378 | 0.341 | 0.348 | 0.325 | 0.305 |
| CAL-12T | 1.2 | – | 1.01 | 0.837 | 1.16 | 0.381 | 0.423 | 0.46 | 0.411 | 0.365 | 0.625 | 0.708 | 0.583 | 0.563 | 0.933 | 0.433 | 0.223 | 0.277 | 0.372 | 0.266 |
| COR-L23 | 1.12 | 0.994 | 1.04 | 1.08 | 1.09 | 0.276 | 0.271 | 0.245 | 0.274 | 0.259 | – | – | – | – | – | 0.483 | 0.419 | 0.45 | 0.443 | 0.523 |
| COR-L 105 | 1.06 | 0.953 | 0.737 | 0.905 | 0.75 | 0.391 | 0.333 | 0.41 | 0.421 | 0.423 | – | – | – | – | – | 0.304 | 0.308 | 0.326 | 0.272 | 0.329 |
| Calu-6 | 1 | 1.04 | 1.1 | 0.871 | 0.789 | – | – | – | – | – | – | – | – | – | – | – | – | – | – | – |
| ChaGo-K-1 | 1.09 | 1.02 | 1.02 | – | 0.911 | 0.949 | 0.98 | 0.954 | 0.887 | 0.98 | 0.956 | 0.97 | 0.892 | 0.924 | 0.881 | 0.538 | 0.668 | 0.554 | 0.539 | 0.501 |
| EBC-1 | 0.61 | 0.523 | 0.552 | 0.531 | 0.299 | – | – | – | – | – | – | – | – | – | – | – | – | – | – | – |
| EKVX | 1.23 | 1.03 | 1.06 | 1.1 | 1.09 | 0.454 | 0.344 | 0.413 | 0.278 | 0.359 | 0.888 | 0.689 | 0.54 | – | 0.719 | 0.382 | 0.481 | 0.546 | 0.425 | 0.454 |
| EMC-BAC-2 | 1.17 | 1.04 | 1.12 | 1.07 | 0.923 | 0.499 | 0.519 | 0.488 | 0.437 | 0.391 | 1.34 | 1.16 | 1.06 | 0.984 | 0.864 | 0.311 | 0.324 | 0.284 | 0.293 | 0.29 |
| HCC-44 | 0.899 | 0.92 | 0.897 | 0.804 | 0.966 | 0.961 | 1.02 | 0.972 | 0.871 | 0.864 | 0.944 | 0.98 | 0.969 | 1.05 | 1.02 | – | – | – | – | – |
| IA-LM | 0.907 | 0.79 | 0.825 | 0.829 | 0.398 | – | – | – | – | – | – | – | – | – | – | – | – | – | – | – |
| LK-2 | – | – | – | – | – | 0.767 | 0.487 | 0.63 | – | 0.673 | 0.626 | 0.499 | 0.476 | 0.431 | 0.689 | – | 0.271 | 0.252 | 0.31 | 0.336 |
| NCI-H358 | – | – | – | – | – | 0.128 | 0.13 | 0.141 | 0.133 | 0.117 | 0.633 | 0.537 | 0.515 | 0.442 | 0.414 | 0.151 | 0.159 | 0.173 | 0.192 | 0.286 |
| NCI-H520 | 0.978 | 0.802 | 0.66 | 0.329 | 0.365 | 0.219 | 0.234 | 0.205 | 0.213 | 0.21 | – | – | – | – | – | 0.218 | 0.192 | 0.202 | 0.172 | 0.177 |
